The supplement of paper PMC11451515

Key:
Conditions in all cases: 48 h
SEM cells [1] = test: AUC of viability dose-response curve (% viability x log10 dose units); higher = less sensitive
How it was run: (§1)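 Leukemia cells adapted to each medium were seeded in 1536-well plates (500 or 1000 cells/well). They were dosed with library compounds in DMSO at 11 threefold doses, 47 μM to 0.79 nM, for 48 h at 37°C. CellTiter-Glo One luminescence was normalised per plate to DMSO and cell-free wells. Area under the curve was integrated by trapezoidal rule over log10 doses on a four-parameter log-logistic fit; curves exceeding full viability were scaled and curves failing quality control removed.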

P12-Ichikawa [2] = test: as above
How it was run: as §1

NOMO1 [3] = test: as above
How it was run: as §1

SEM cells [4] = test: cell viability relative to DMSO control; higher = less cytotoxic
How it was run: (§2)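 Cells were incubated for 48 h at 37°C before CellTiter-Glo One luminescence was read. The cells were NOMO1 or SEM (500 cells/well) or P12-Ichikawa (1000 cells/well) leukemia cells, adapted for at least four passages in each medium and seeded in 1536-well plates (5 μl). Dosing used library compounds in DMSO applied by pin over 11 threefold points, 47 μM to 0.79 nM. Viability is the per-plate percentage of DMSO wells, with cell-free wells as background.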

P12-Ichikawa [5] = test: as above
How it was run: as §2

NOMO1 [6] = test: as above
How it was run: as §2

CN1C[C@H]2c3ccccc3Oc3ccc(Cl)cc3[C@@H]2C1
AUC of viability dose-response curve
Conditions | NOMO1 [3] | P12-Ichikawa [2] | SEM cells [1]
HPLM + 10% dialyzed FBS | 440 | 436 | 372
RPMI 5 mM glucose + 10% FBS | 410 | 462 | 395
RPMI 5 mM glucose + 10% dialyzed FBS | 418 | 410 | 396

cell viability [%]
Conditions | NOMO1 [6] | P12-Ichikawa [5] | SEM cells [4]
HPLM + 10% dialyzed FBS, 0.000781 µM | 78.1 | 88.5 | 75.4
HPLM + 10% dialyzed FBS, 0.00234 µM | 106 | 86.3 | 76
HPLM + 10% dialyzed FBS, 0.00702 µM | 93.5 | 83.8 | 68
HPLM + 10% dialyzed FBS, 0.0211 µM | 92.7 | 90.2 | 76.3
HPLM + 10% dialyzed FBS, 0.0632 µM | 85.6 | 89.7 | 80.2
HPLM + 10% dialyzed FBS, 0.19 µM | 90 | 96.8 | 84
HPLM + 10% dialyzed FBS, 0.569 µM | 106 | 92.5 | 94.5
HPLM + 10% dialyzed FBS, 1.71 µM | 96 | 96 | 90
HPLM + 10% dialyzed FBS, 5.12 µM | 90.5 | 91.4 | 96.3
HPLM + 10% dialyzed FBS, 15.4 µM | 93.8 | 93 | 85
HPLM + 10% dialyzed FBS, 46.1 µM | 82.1 | 95.8 | 6.31
RPMI 5 mM glucose + 10% FBS, 0.000781 µM | 75.8 | 96.9 | 89.6
RPMI 5 mM glucose + 10% FBS, 0.00234 µM | 93.6 | 94.5 | 80.8
RPMI 5 mM glucose + 10% FBS, 0.00702 µM | 88.7 | 95.6 | 90.6
RPMI 5 mM glucose + 10% FBS, 0.0211 µM | 90.4 | 97.8 | 86.7
RPMI 5 mM glucose + 10% FBS, 0.0632 µM | 91.3 | 88.4 | 71.4
RPMI 5 mM glucose + 10% FBS, 0.19 µM | 83.3 | 95.4 | 91.7
RPMI 5 mM glucose + 10% FBS, 0.569 µM | 80.7 | 98.2 | 92.4
RPMI 5 mM glucose + 10% FBS, 1.71 µM | 88.2 | 99 | 90.6
RPMI 5 mM glucose + 10% FBS, 5.12 µM | 80.4 | 96.7 | 95.8
RPMI 5 mM glucose + 10% FBS, 15.4 µM | 87.3 | 103 | 79.3
RPMI 5 mM glucose + 10% FBS, 46.1 µM | 85.6 | 101 | 5.32
RPMI 5 mM glucose + 10% dialyzed FBS, 0.000781 µM | 85.8 | 87.6 | 73.5
RPMI 5 mM glucose + 10% dialyzed FBS, 0.00234 µM | 86.1 | 89.7 | 83.7
RPMI 5 mM glucose + 10% dialyzed FBS, 0.00702 µM | 85.4 | 82.3 | 76.6
RPMI 5 mM glucose + 10% dialyzed FBS, 0.0211 µM | 94.2 | 87.6 | 83.3
RPMI 5 mM glucose + 10% dialyzed FBS, 0.0632 µM | 87.4 | 87.5 | 73.5
RPMI 5 mM glucose + 10% dialyzed FBS, 0.19 µM | 95.2 | 96.6 | 105
RPMI 5 mM glucose + 10% dialyzed FBS, 0.569 µM | 85.2 | 87 | 107
RPMI 5 mM glucose + 10% dialyzed FBS, 1.71 µM | 83.9 | 84.5 | 103
RPMI 5 mM glucose + 10% dialyzed FBS, 5.12 µM | 93 | 80 | 85.3
RPMI 5 mM glucose + 10% dialyzed FBS, 15.4 µM | 82.1 | 84.3 | 79.1
RPMI 5 mM glucose + 10% dialyzed FBS, 46.1 µM | 85.3 | 78.1 | 6.04

NC(=O)c1ccc(I)c([N+](=O)[O-])c1
AUC of viability dose-response curve
Conditions | NOMO1 [3] | P12-Ichikawa [2] | SEM cells [1]
HPLM + 10% dialyzed FBS | 468 | 461 | 473
RPMI 5 mM glucose + 10% FBS | 475 | 457 | 470
RPMI 5 mM glucose + 10% dialyzed FBS | 464 | 468 | 467

cell viability [%]
Conditions | NOMO1 [6] | P12-Ichikawa [5] | SEM cells [4]
HPLM + 10% dialyzed FBS, 0.000781 µM | 130 | 117 | 104
HPLM + 10% dialyzed FBS, 0.00234 µM | 123 | 126 | 127
HPLM + 10% dialyzed FBS, 0.00702 µM | 110 | 124 | 108
HPLM + 10% dialyzed FBS, 0.0211 µM | 138 | 115 | 126
HPLM + 10% dialyzed FBS, 0.0632 µM | 126 | 130 | 126
HPLM + 10% dialyzed FBS, 0.19 µM | 140 | 139 | 130
HPLM + 10% dialyzed FBS, 0.569 µM | 128 | 133 | 133
HPLM + 10% dialyzed FBS, 1.71 µM | 117 | 134 | 124
HPLM + 10% dialyzed FBS, 5.12 µM | 126 | 132 | 123
HPLM + 10% dialyzed FBS, 15.4 µM | 124 | 128 | 117
HPLM + 10% dialyzed FBS, 46.1 µM | 117 | 125 | 123
RPMI 5 mM glucose + 10% FBS, 0.000781 µM | 125 | – | 106
RPMI 5 mM glucose + 10% FBS, 0.00234 µM | 125 | – | 124
RPMI 5 mM glucose + 10% FBS, 0.00702 µM | 120 | – | 131
RPMI 5 mM glucose + 10% FBS, 0.0211 µM | 131 | – | 137
RPMI 5 mM glucose + 10% FBS, 0.0632 µM | 119 | – | 137
RPMI 5 mM glucose + 10% FBS, 0.19 µM | 125 | – | 143
RPMI 5 mM glucose + 10% FBS, 0.569 µM | 126 | – | 145
RPMI 5 mM glucose + 10% FBS, 1.71 µM | 140 | – | 156
RPMI 5 mM glucose + 10% FBS, 5.12 µM | 133 | – | 120
RPMI 5 mM glucose + 10% FBS, 15.4 µM | 120 | – | 104
RPMI 5 mM glucose + 10% FBS, 46.1 µM | 118 | – | 111
RPMI 5 mM glucose + 10% dialyzed FBS, 0.000781 µM | 123 | – | 97.6
RPMI 5 mM glucose + 10% dialyzed FBS, 0.00234 µM | 120 | – | 113
RPMI 5 mM glucose + 10% dialyzed FBS, 0.00702 µM | 137 | – | 124
RPMI 5 mM glucose + 10% dialyzed FBS, 0.0211 µM | 143 | – | 118
RPMI 5 mM glucose + 10% dialyzed FBS, 0.0632 µM | 148 | – | 123
RPMI 5 mM glucose + 10% dialyzed FBS, 0.19 µM | 132 | – | 112
RPMI 5 mM glucose + 10% dialyzed FBS, 0.569 µM | 148 | – | 116
RPMI 5 mM glucose + 10% dialyzed FBS, 1.71 µM | 139 | – | 131
RPMI 5 mM glucose + 10% dialyzed FBS, 5.12 µM | 143 | – | 115
RPMI 5 mM glucose + 10% dialyzed FBS, 15.4 µM | 158 | – | 103
RPMI 5 mM glucose + 10% dialyzed FBS, 46.1 µM | 130 | – | 99.8

C[C@@H]1[C@H](O)[C@@H](C)/C=C/C=C/C=C/C=C/C=C/C=C/C=C/[C@H](O[C@@H]2O[C@H](C)[C@@H](O)[C@H](N)[C@@H]2O)C[C@@H]2O[C@](O)(C[C@@H](O)C[C@@H](O)[C@H](O)CC[C@@H](O)C[C@@H](O)CC(=O)O[C@H]1C)C[C@H](O)[C@H]2C(=O)O
AUC of viability dose-response curve
Conditions | NOMO1 [3] | P12-Ichikawa [2] | SEM cells [1]
HPLM + 10% dialyzed FBS | 422 | 468 | 450
RPMI 5 mM glucose + 10% FBS | 452 | 458 | 443
RPMI 5 mM glucose + 10% dialyzed FBS | 461 | 465 | 465

cell viability [%]
Conditions | NOMO1 [6] | P12-Ichikawa [5] | SEM cells [4]
HPLM + 10% dialyzed FBS, 0.000781 µM | 113 | 105 | 105
HPLM + 10% dialyzed FBS, 0.00234 µM | 121 | 118 | 92.1
HPLM + 10% dialyzed FBS, 0.00702 µM | 126 | 117 | 105
HPLM + 10% dialyzed FBS, 0.0211 µM | 117 | 124 | 110
HPLM + 10% dialyzed FBS, 0.0632 µM | 114 | 121 | 110
HPLM + 10% dialyzed FBS, 0.19 µM | 116 | 126 | 110
HPLM + 10% dialyzed FBS, 0.569 µM | 124 | 121 | 103
HPLM + 10% dialyzed FBS, 1.71 µM | 123 | 129 | 114
HPLM + 10% dialyzed FBS, 5.12 µM | 152 | 119 | 102
HPLM + 10% dialyzed FBS, 15.4 µM | 138 | 127 | 105
HPLM + 10% dialyzed FBS, 46.1 µM | 133 | 118 | 125
RPMI 5 mM glucose + 10% FBS, 0.000781 µM | 108 | 119 | 113
RPMI 5 mM glucose + 10% FBS, 0.00234 µM | 124 | 112 | 115
RPMI 5 mM glucose + 10% FBS, 0.00702 µM | 112 | 118 | 110
RPMI 5 mM glucose + 10% FBS, 0.0211 µM | 114 | 110 | 107
RPMI 5 mM glucose + 10% FBS, 0.0632 µM | 111 | 119 | 105
RPMI 5 mM glucose + 10% FBS, 0.19 µM | 115 | 123 | 112
RPMI 5 mM glucose + 10% FBS, 0.569 µM | 133 | 134 | 112
RPMI 5 mM glucose + 10% FBS, 1.71 µM | 119 | 127 | 108
RPMI 5 mM glucose + 10% FBS, 5.12 µM | 125 | 122 | 104
RPMI 5 mM glucose + 10% FBS, 15.4 µM | 118 | 125 | 121
RPMI 5 mM glucose + 10% FBS, 46.1 µM | 135 | 123 | 118
RPMI 5 mM glucose + 10% dialyzed FBS, 0.000781 µM | – | 98.6 | 110
RPMI 5 mM glucose + 10% dialyzed FBS, 0.00234 µM | – | 113 | 103
RPMI 5 mM glucose + 10% dialyzed FBS, 0.00702 µM | – | 119 | 108
RPMI 5 mM glucose + 10% dialyzed FBS, 0.0211 µM | – | 110 | 93.8
RPMI 5 mM glucose + 10% dialyzed FBS, 0.0632 µM | – | 130 | 114
RPMI 5 mM glucose + 10% dialyzed FBS, 0.19 µM | – | 116 | 116
RPMI 5 mM glucose + 10% dialyzed FBS, 0.569 µM | – | 123 | 105
RPMI 5 mM glucose + 10% dialyzed FBS, 1.71 µM | – | 124 | 108
RPMI 5 mM glucose + 10% dialyzed FBS, 5.12 µM | – | 124 | 109
RPMI 5 mM glucose + 10% dialyzed FBS, 15.4 µM | – | 115 | 91.2
RPMI 5 mM glucose + 10% dialyzed FBS, 46.1 µM | – | 124 | 127
